Common to all, as to assay: NCI-60 cell line screen, 48 h
The subject of experiment [1] is IGROV-1.
For experiment [2], the system named is HOP-62.
Experiment [3] concerns HCT-15.
Experiment [4] deals with COLO 205.
In experiment [5] the test system is SK-MEL-28.
Experiment [6] relates to T47D.
Experiment [7] relates to M14.
The test system of experiment [8] is MDA-MB-435.
Experiment [9] concerns K562.
Experiment [10] concerns ACHN.
The test system of experiment [11] is MDA-MB-231.
Experiment [12] deals with UO-31.
Experiment [13] concerns NCI-H226.
For experiment [14], the system named is LOX IMVI.
The test system of experiment [15] is BT-549.
For experiment [16], the system named is Malme-3M.
Experiment [17] has as its system UACC-257.
Experiment [18] concerns NCI-H460.
Experiment [19] concerns A549.
The subject of experiment [20] is SF-268.

The structures appear in SMILES notation.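 Interpolation was linear, between the two tested concentrations surrounding the appropriate level; five concentrations were tested over 48 hours in 96-well plates. The concentration for 50% growth inhibition is given as GI50.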 The source made the active and inactive calls. Cut-off read from the data, not from the text of the source: active = GI50 up to about 1.1 µM and inactive = higher.

Take `c1ccc([P+](CCCCCCCC[P+](c2ccccc2)(c2ccccc2)c2ccccc2)(c2ccccc2)c2ccccc2)cc1`: the GI50 in experiment [1] is 2.4 µM (inactive); in experiment [2] it was 3.64 µM (inactive); in [3], above 100 µM; in experiment [4], 0.91 µM (active); in experiment [5], 16.9 µM (inactive); in experiment [6] it was 5.16 µM (inactive). Besides, the GI50 was 35.6 µM (inactive) in [7]; 4.92 µM (inactive) in experiment [8]; 3.6 µM (inactive) in [9]; 58.9 µM (inactive) in [10]; 7.13 µM (inactive) in experiment [11]; > 100 µM (inactive) in experiment [12]. In addition, the GI50 in [13] is 3.61 µM (inactive); in [14], 4.2 µM (inactive); in experiment [15], 1.99 µM (inactive); in experiment [16], 16.4 µM (inactive); in experiment [17], 0.92 µM (active); in experiment [18], 3.25 µM (inactive). Also, the GI50 in [19] was 5.73 µM (inactive); in [20] it was 3.5 µM (inactive).
Consider `CN1C/C(=C\c2cccs2)C2=NN(C)C(c3cccs3)C2C1` (configuration not stated), for which the GI50 in experiment [1] is 32.4 µM (inactive); in [2], > 100 µM (inactive); in experiment [3], above 100 µM; in experiment [4], > 100 µM (inactive); in experiment [5] it was > 100 µM (inactive); in [6], 44.4 µM (inactive). The GI50 in [7] is 97.7 µM (inactive); in experiment [8] it was > 100 µM (inactive); in experiment [9], 29.3 µM (inactive); in experiment [10], > 100 µM (inactive); in [11], 67.9 µM (inactive); in experiment [12], 75.7 µM (inactive). In addition, the GI50 is > 100 µM (inactive) in experiment [13]; > 100 µM (inactive) in experiment [14]; > 100 µM (inactive) in [15]; > 100 µM (inactive) in [16]; > 100 µM (inactive) in experiment [17]; 86.5 µM (inactive) in experiment [18]. In addition, the GI50 was 89.3 µM (inactive) in experiment [19] and > 100 µM (inactive) in experiment [20].
As for `COc1cc(/C=C/C(=O)OC[C@]23O[C@H]2[C@@H](OC2OC(C)C(O)C(O)C2O)C2C=CO[C@@H](OC4OC(CO)C(O)C(O)C4O)C23)ccc1O` (some centres not stated), the GI50 in experiment [1] was > 100 µM (inactive); in [2], > 100 µM (inactive); in experiment [3] it was above 100 µM; in experiment [4], > 100 µM (inactive); in experiment [5] it was > 100 µM (inactive); in [6], > 100 µM (inactive). Besides, the GI50 in experiment [7], in experiment [8], in [9], in experiment [10], in experiment [11] and in experiment [12] was > 100 µM (inactive) each time. In addition, the GI50 in experiment [13], in experiment [14], in experiment [15], in experiment [16], in experiment [18] and in experiment [19] was > 100 µM (inactive) each time. For the same molecule, the GI50 in [20] is > 100 µM (inactive).
With `CCOC(=O)c1c(N2CCCC2)[nH]c(=O)c(C(c2ccc(OC)cc2)c2c(O)c(C(=O)OCC)c(N3CCCC3)[nH]c2=O)c1O`, the GI50 in [2] is 46.6 µM (inactive); in [3], above 100 µM; in experiment [4], > 100 µM (inactive); in [5], > 100 µM (inactive); in experiment [6], > 100 µM (inactive); in experiment [7] it was > 100 µM (inactive). For the same molecule, the GI50 in [8] was > 100 µM (inactive); in [9] it was > 100 µM (inactive); in experiment [10], 56 µM (inactive); in [11] it was 20.8 µM (inactive); in [12] it was > 100 µM (inactive); in experiment [13] it was > 100 µM (inactive). Also, the GI50 is > 100 µM (inactive) in experiment [14]; 76 µM (inactive) in experiment [15]; > 100 µM (inactive) in [16]; > 100 µM (inactive) in experiment [17]; > 100 µM (inactive) in [18]; > 100 µM (inactive) in experiment [19]. Besides, the GI50 in experiment [20] was 49.5 µM (inactive).
For `CCOC(=O)c1ccc(NC2Oc3cc4c(cc3C(c3cc(OC)c(OC)c(OC)c3)C2C)OCO4)cc1` (configuration not stated), the GI50 is 0.48 µM (active) in experiment [1]; 0.789 µM (active) in experiment [2]; 0.506 µM in experiment [3]; 0.236 µM (active) in [4]; 32.4 µM (inactive) in experiment [5]; 0.486 µM (active) in [6]. The GI50 in [7] was 0.522 µM (active); in experiment [8], 0.148 µM (active); in experiment [9], 0.329 µM (active); in experiment [10], 0.769 µM (active); in experiment [11] it was 0.516 µM (active); in experiment [12] it was 0.351 µM (active). Also, the GI50 in [13] is 1.51 µM (inactive); in experiment [14], 0.61 µM (active); in experiment [15], 0.474 µM (active); in experiment [16], 0.216 µM (active); in experiment [18] it was 0.445 µM (active); in experiment [19], 0.847 µM (active). The GI50 in experiment [20] was 0.675 µM (active).
For `COc1cc2cc(C(=O)N3C[C@H](CCl)c4c3cc(O)c3ccccc43)[nH]c2c(OC)c1OC`, the GI50 in experiment [1] is 0.121 µM (active); in experiment [2], 0.044 µM (active); in experiment [3] it was 0.192 µM; in experiment [4] it was 1.32 µM (inactive); in experiment [5], 0.267 µM (active); in experiment [6], 1.71 µM (inactive). Also, the GI50 in experiment [7] was 0.159 µM (active); in [8] it was 0.222 µM (active); in [9], 0.25 µM (active); in [10], 0.0393 µM (active); in [11] it was 1.69 µM (inactive); in experiment [12] it was 0.13 µM (active). The GI50 in experiment [13] is 0.12 µM (active); in [14] it was 0.101 µM (active); in experiment [15] it was 0.236 µM (active); in [16] it was 0.152 µM (active); in experiment [18] it was 0.042 µM (active); in experiment [19] it was 0.252 µM (active). Also, the GI50 in experiment [20] is 0.117 µM (active).
Regarding `CN(C)CN1CSC(=S)N(CN(C)C)C1`, the GI50 in [1] is 54.3 µM (inactive); in experiment [2], > 100 µM (inactive); in experiment [3], above 100 µM; in experiment [5], > 100 µM (inactive); in experiment [6] it was > 100 µM (inactive); in experiment [7], > 100 µM (inactive). Also, the GI50 in experiment [8] is > 100 µM (inactive); in experiment [9] it was 44.5 µM (inactive); in experiment [10], > 100 µM (inactive); in experiment [11] it was > 100 µM (inactive); in experiment [12] it was > 100 µM (inactive); in experiment [13], > 100 µM (inactive). Besides, the GI50 in experiment [14] was > 100 µM (inactive); in experiment [15], > 100 µM (inactive); in experiment [16] it was > 100 µM (inactive); in experiment [17] it was > 100 µM (inactive); in experiment [18], 42.6 µM (inactive); in experiment [19], > 100 µM (inactive). In experiment [20], the GI50 is > 100 µM (inactive).
For the molecule `O=C(NNC(=O)c1ccc(Cl)cc1NC(=O)C12CC3CC(CC(C3)C1)C2)c1ccc(Cl)cc1`, the GI50 in experiment [1] is 15 µM (inactive); in experiment [2] it was 19.8 µM (inactive); in experiment [3], 17.5 µM; in experiment [4], 14.5 µM (inactive); in experiment [6], 27.9 µM (inactive); in [7] it was 21.2 µM (inactive). Further, the GI50 is 18.6 µM (inactive) in experiment [8]; 34.9 µM (inactive) in experiment [9]; 23.6 µM (inactive) in [10]; 22 µM (inactive) in experiment [11]; 17.1 µM (inactive) in experiment [12]; 22.7 µM (inactive) in experiment [13]. The GI50 in experiment [14] was 18.5 µM (inactive); in experiment [15], 41.7 µM (inactive); in experiment [16], 11.4 µM (inactive); in [17] it was 25.8 µM (inactive); in experiment [18], 23.2 µM (inactive); in [19], 19.5 µM (inactive). Moreover, in experiment [20], the GI50 is 29.9 µM (inactive).
In the case of `CCOC(=O)C1CCCN1C(=O)c1ccccc1Cl` (configuration not stated), the GI50 in experiment [1] was > 100 µM (inactive); in [2] it was > 100 µM (inactive); in experiment [3] it was above 100 µM; in experiment [5], > 100 µM (inactive); in experiment [6], > 100 µM (inactive); in experiment [7], > 100 µM (inactive). Besides, the GI50 in experiment [8], in [9], in [10], in experiment [11], in experiment [12] and in experiment [13] was > 100 µM (inactive) each time. Moreover, the GI50 in [14], in [15], in experiment [16], in [17], in [18] and in [19] was > 100 µM (inactive) throughout. The GI50 in experiment [20] is > 100 µM (inactive).
In the case of `COC(=O)c1cc2c(cc1C(=O)OC)[C@@]1(C)CCCC(C)(C)C1CC2` (some centres not stated), the GI50 in experiment [1] was 10.4 µM (inactive); in experiment [2], 23.8 µM (inactive); in experiment [3] it was 17.1 µM; in experiment [5] it was 26.3 µM (inactive); in experiment [6], 0.508 µM (active); in experiment [7], 22.9 µM (inactive). In addition, the GI50 in experiment [8] was 30.2 µM (inactive); in experiment [9] it was 13.8 µM (inactive); in [10], 20.7 µM (inactive); in [11] it was 17.3 µM (inactive); in experiment [12], 17.8 µM (inactive); in [13] it was 17.4 µM (inactive). Moreover, the GI50 in [14] was 18.1 µM (inactive); in [15], 28.6 µM (inactive); in [16], 1.22 µM (inactive); in [17], 19.5 µM (inactive); in [18], 20.3 µM (inactive); in experiment [19] it was 19.4 µM (inactive). Besides, the GI50 in [20] was 13.9 µM (inactive).

(Values after ChEMBL document CHEMBL1201862, “PubChem BioAssay data set” (2004).)
